Source: paper PMC12290960, “Eremanthus erythropappus as a Source of Antiparasitic Agents: In Vitro and In Vivo Efficacy against Schistosoma mansoni” (ACS Omega, 2025)

How the values were obtained:
[1] = test system: S. mansoni adult worms; assay: In vitro antischistosomal assay on adult worms (mortality/viability by motility); assay type: cell-based, Schistosoma mansoni; details: for EC50: Schistosoma mansoni, mortality of S. mansoni adult worms, 95% CI in square brackets; for in vitro antischistosomal activity (in words): concentrations of up to 50 μM
[2] = in vitro; details: African green monkey
[3] = test system: S. mansoni (49 day old adult infection); assay: In vivo antischistosomal assay in S. mansoni-infected mice (worm burden, oogram, fecal egg count); parameters: species or system Schistosoma mansoni; details: for worm burden reduction (WBR): single dose 400 mg/kg p.o., treated 49 days postinfection, vs vehicle control
Protocol: The Belo Horizonte strain of Schistosoma mansoni was maintained in its life cycle using Biomphalaria glabrata snails (intermediate hosts) and female Swiss mice (final hosts). Three week old female Swiss mice (∼20 g) were obtained from […] para Laboratório (São Paulo, Brazil). Infected snails and mice were housed under controlled conditions (25 °C, 50% humidity, and 12 h light/dark cycles) with ad libitum access to food and water. Mice were percutaneously infected with 80 S. mansoni cercariae and treated 49 days postinfection (adult worm stage). […] At 63 days postinfection, mice were euthanized (CO2), and worms were recovered by mesenteric perfusion. Worm burden reduction was calculated after sexing, , and fecal egg counts were performed as previously described. , The study complied with ARRIVE guidelines, including randomization to minimize bias.

[4] = test system: Vero cells; assay: Cytotoxicity in mammalian cells (MTT assay); details: CC50 on Vero cells divided by EC50 on schistosomes

SMILES	EC50 [1] [µM]	in vitro antischistosomal activity (in words) [1]	CC50 [2] [µM]	worm burden reduction (WBR) [3] [%]	CC50 at 72 h [2] [µM]	SI (selectivity index) [4]	reduction in immature egg deposition (oogram, EBR immature) ([3]; 400 mg/kg p.o., 49 day old adult infection) [%]	reduction in number of eggs per gram of feces (egg load, EBR) ([3]; 400 mg/kg p.o., 49 day old adult infection, vs control) [%]
COc1ccc(-c2cc(=O)c3c(O)cc(O)cc3o2)cc1 [acacetin (14), 5,7-dihydroxy-4′-methoxyflavone]	> 50	inactive						
C=C(C)[C@@H]1CC[C@]2(C(=O)O)CC[C@]3(C)[C@H](CC[C@@H]4[C@@]5(C)CC[C@H](O)C(C)(C)[C@@H]5CC[C@]43C)[C@@H]12 [betulinic acid (8), 3β-hydroxy-20(29)-lupaene-28-oic acid]	36.8		> 500	41.9				
C[C@H]1C(=O)CC[C@@H]2[C@]1(C)CC[C@H]1[C@@]2(C)CC[C@@]2(C)[C@@H]3CC(C)(C)CC[C@]3(C)CC[C@]12C [friedelin (7), friedelan-3-one]	> 50	inactive						
O=C(C1CCCCC1)N1CC(=O)N2CCc3ccccc3C2C1 (stereo not shown) [praziquantel]	0.8			92.6	> 500	>625	96.8	93.9
